Results: ChEMBL document CHEMBL1649511, “Reduction of amphotericin B-induced renal tubular apoptosis by N-acetylcysteine” (2009)

What was measured:
Format in all cases: functional
Parameters in all cases: scale not given: the % may be the effect or the level left
Settings in all cases: route intraperitoneal
Rattus norvegicus [1] = assay: Inhibition of amphotericin B-induced renal tubular apoptosis in Sprague-Dawley rat assessed as apoptotic index at 30 mg/kg, ip BID measured post last dose
Rattus norvegicus [2] = assay: Inhibition of amphotericin B-induced renal tubular apoptosis in Sprague-Dawley rat assessed as apoptotic index at 60 mg/kg, ip BID measured post last dose
Rattus norvegicus [3] = assay: Inhibition of amphotericin B-induced renal tubular apoptosis in Sprague-Dawley rat assessed as apoptotic index at 120 mg/kg, ip BID measured post last dose

In the case of `CC(=O)N[C@@H](CS)C(=O)O` [ACETYLCYSTEINE], the Activity (Rattus norvegicus [1]) is reported as 27.4%, the Activity (Rattus norvegicus [2]) is reported as 23.6% and the Activity (Rattus norvegicus [3]) is reported as 23.5%.
